Measured values taken from article PMC5931096, “A Phase I study of the novel immunomodulatory agent PG545 (pixatimod) in subjects with advanced solid tumours” (British Journal of Cancer, 2018).

Assay: Phase I dose-escalation: safety, tolerability, DLT and MTD of weekly 1-h IV infusion
Type: in vivo
Procedure: The study was an open-label, multicentre, phase 1 dose-escalation study using a 3 + 3 design. The primary objective was to determine the MTD of weekly administered PG545 via IV infusion. Secondary objectives were to characterize safety, tolerability, clinical activity, PK and PD biomarkers.
Patients continued treatment until disease progression, unacceptable toxicity or withdrawal (either voluntarily or investigator-decision).
All patients were assessed for safety, those who received at least one dose of PG545 were evaluated for efficacy. Safety assessment included the incidence of all adverse events (AEs), irrespective of relationship to study drug, according to the National Cancer Institute Common Terminology Criteria for Adverse Events, version 4.0, and the incidence of patients experiencing dose modifications and/or premature discontinuation of study drug. Dose-limiting toxicities (DLTs) used to determine the MTD were defined as occurring during Cycle 1 of treatment only and related to PG545 according to investigator assessment. If no DLT occurred in the first three subjects, the next three-subject cohort was enrolled at the next highest available dose level. If a single DLT occurred, an additional three subjects was enrolled at the same dose level. Dose escalation continued until two subjects of the cohort experienced a DLT; this was defined as the toxic dose level. The dose-escalation phase was completed and MTD determined by reducing the dose to the next lowest dose compared to the toxic dose and expanding this cohort to at least 6 subjects.

[1] = Moderate, Unrelated, Safety Set

## CC(C)CCC[C@@H](C)[C@H]1CC[C@H]2[C@@H]3CC[C@H]4C[C@@H](O[C@@H]5O[C@H](COS(=O)(=O)O)[C@@H](O[C@H]6O[C@H](COS(=O)(=O)O)[C@@H](O[C@H]7O[C@H](COS(=O)(=O)O)[C@@H](O[C@H]8O[C@H](COS(=O)(=O)O)[C@@H](OS(=O)(=O)O)[C@H](OS(=O)(=O)O)[C@H]8OS(=O)(=O)O)[C@H](OS(=O)(=O)O)[C@H]7OS(=O)(=O)O)[C@H](OS(=O)(=O)O)[C@H]6OS(=O)(=O)O)[C@H](OS(=O)(=O)O)[C@H]5OS(=O)(=O)O)CC[C@]4(C)[C@H]3CC[C@]12C [PG545]
[1]
  TEAE: General disorders and administration site conditions: 5 (21.7%)
  TEAE: Groin pain: 1 (4.3%)
  TEAE: Headache: 2 (8.7%)
  TEAE: Hypoalbuminaemia: 1 (4.3%)
  TEAE: Infections and infestations: 1 (4.3%)
  TEAE: Insomnia: 1 (4.3%)
  TEAE: Intestinal obstruction: 1 (4.3%)
  TEAE: Investigations: 3 (13.0%)
  TEAE: Malaise: 1 (4.3%)
  TEAE: Metabolism and nutritional disorders: 4 (17.4%)
  TEAE: Musculoskeletal and connective tissue disorders: 6 (26.1%)
  TEAE: Musculoskeletal pain: 1 (4.3%)
  TEAE: Nausea: 2 (8.7%)
  TEAE: Nervous system disorders: 2 (8.7%)
  TEAE: Neutrophil count increased: 1 (4.3%)
  TEAE: Pain in extremity: 1 (4.3%)
  TEAE: Platelet count increased: 1 (4.3%)
  TEAE: Psychiatric disorders: 2 (8.7%)
  TEAE: Respiratory, thoracic and mediastinal disorders: 4 (17.4%)
  TEAE: Upper respiratory tract infection: 1 (4.3%)
  TEAE: White blood cell count increased: 1 (4.3%)
Overall, N = 23
  Acute pulmonary oedema, related AE leading to discontinuation: 1 (4) n (%)
  Acute pulmonary oedema, related serious AE: 1 (4) n (%)
  Acute pulmonary oedema, related severe AE: 1 (4) n (%)
  Blood cholesterol increased, related severe AE: 1 (4) n (%)
  Blood cholesterol increased, treatment-related AE: 2 (9) n (%)
  Blood pressure increased, related severe AE: 1 (4) n (%)
  Chills, related AE leading to discontinuation: 1 (4) n (%)
  Chills, related severe AE: 2 (9) n (%)
  Chills, treatment-related AE: 5 (22) n (%)
  Decreased appetite, treatment-related AE: 5 (22) n (%)
  Diarrhoea, treatment-related AE: 4 (17) n (%)
  Epistaxis, related AE leading to discontinuation: 1 (4) n (%)
  Epistaxis, related serious AE: 1 (4) n (%)
  Epistaxis, related severe AE: 1 (4) n (%)
  Fatigue, related severe AE: 2 (9) n (%)
  Fatigue, treatment-related AE: 5 (22) n (%)
  Headache, treatment-related AE: 2 (9) n (%)
  Hypercholesterolemia, treatment-related AE: 2 (9) n (%)
  Hyperlipidaemia, related severe AE: 1 (4) n (%)
  Hypertension, related AE leading to discontinuation: 1 (4) n (%)
  Hypertension, related serious AE: 1 (4) n (%)
  Hypertension, related severe AE: 5 (22) n (%)
  Hypertension, treatment-related AE: 6 (26) n (%)
  Hypovolaemia, related serious AE: 1 (4) n (%)
  Infusion-related reaction, related serious AE: 1 (4) n (%)
  Infusion-related reaction, related severe AE: 1 (4) n (%)
  Infusion-related reaction, treatment-related AE: 5 (22) n (%)
  Injection site reaction, treatment-related AE: 2 (9) n (%)
  Nausea, treatment-related AE: 5 (22) n (%)
  Pyrexia, related AE leading to discontinuation: 1 (4) n (%)
  Pyrexia, related serious AE: 1 (4) n (%)
  Pyrexia, related severe AE: 1 (4) n (%)
  Pyrexia, treatment-related AE: 5 (22) n (%)
Severe, Related, Safety Set
  TEAE: Acute pulmonary oedema: 1 (4.3%)
  TEAE: At least one event: 11 (47.8%)
  TEAE: Blood cholesterol increased: 1 (4.3%)
  TEAE: Blood pressure increased: 1 (4.3%)
  TEAE: Chills: 2 (8.7%)
  TEAE: Epistaxis: 1 (4.3%)
  TEAE: Fatigue: 2 (8.7%)
  TEAE: General disorders and administration site conditions: 4 (17.5%)
  TEAE: Hyperlipidaemia: 1 (4.3%)
  TEAE: Hypertension: 5 (21.7%)
  TEAE: Infusion related reaction: 1 (4.3%)
  TEAE: Injury, poisoning and procedural complications: 1 (4.3%)
  TEAE: Investigations: 2 (8.7%)
  TEAE: Metabolism and nutritional disorders: 1 (4.3%)
  TEAE: Pyrexia: 1 (4.3%)
  TEAE: Respiratory, thoracic and mediastinal disorders: 2 (8.7 %)
  TEAE: Vascular disorders: 5 (21.7%)
Severe, Unrelated, Safety Set
  TEAE: AST increased: 1 (4.3%)
  TEAE: Anaemia: 1 (4.3%)
  TEAE: At least one event: 7 (30.4%)
  TEAE: Blood ALP increased: 2 (8.7%)
  TEAE: Blood and lymphatic system disorders: 1 (4.3%)
  TEAE: Chest pain: 1 (4.3%)
  TEAE: Constipation: 1 (4.3%)
  TEAE: Dehydration: 1 (4.3%)
  TEAE: Dysuria: 1 (4.3%)
  TEAE: GGT increased: 1 (4.3%)
  TEAE: Gastrointestinal disorders: 2 (8.7 %)
  TEAE: General disorders and administration site conditions: 1 (4.3%)
  TEAE: Hyponatraemia: 1 (4.3%)
  TEAE: Infections and infestations: 1 (4.3%)
  TEAE: Investigations: 2 (8.7%)
  TEAE: Lower respiratory tract infection: 1 (4.3%)
  TEAE: Metabolism and nutritional disorders: 2 (8.7%)
  TEAE: Renal and urinary disorders: 1 (4.3%)
  TEAE: Small intestinal obstruction: 1 (4.3%)
All cohorts
  Serious adverse events (SAEs), number: 12
  Treatment-related hypertension, occurrences: six
In vivo
  SAEs resulting in withdrawal or discontinuation: Five
Investigator assessment
  SAEs possibly, likely or certainly related to PG545: Six
Of the 12 SAEs
  SAEs graded mild: one
  SAEs graded severe: nine
Of the 12 SAEs, death due to disease progression
  SAEs graded fatal: two
transient
  Duration of hypertensive episodes: < 24 h
Weekly 1-h IV infusion
  Maximum-tolerated dose (MTD): 100 mg
  Toxic dose: 150 mg
